Reference: US4073913A, “N^2 -arylsulfonyl-L-argininamides and the pharmaceutically acceptable salts thereof” (Mitsubishi Chemical Industries Limited, priority 1974, dated 1978)

assay: acute toxicity (LD50), intraperitoneal administration in mice; format: in vivo, mice (male, 20 g); settings: comparison with N^2 -dansyl-L-argininamides; route and species not restated

For `CCCCN(C)C(=O)[C@H](CCCNC(=N)N)NS(=O)(=O)c1cccc2c(N(C)C)cccc12` [N^2 -dansyl-N-methyl-N-butyl-L-argininamide, reference compound], the “LD50 values (comparison dansyl compounds)” value was 70 milligrams per kilogram.

same assay, conditions: mouse, in vivo, ip, intraperitoneal, mice (male, 20 g); read-out: LD50

First: COc1ccc2cc(S(=O)(=O)N[C@@H](CCCNC(=N)N)C(=O)N(CC3CCCCC3)[C@@H](C)C(=O)O)cc(OC)c2c1 [N^2-(4,6-dimethoxy-2-naphthylsulfonyl)-L-arginyl-N-cyclohexylmethylalanine]
Second: COCCN(CC(=O)O)C(=O)[C@H](CCCNC(=N)N)NS(=O)(=O)c1cc(OC)c2cc(OC)ccc2c1 [N^2-(4,6-dimethoxy-2-naphthylsulfonyl)-L-arginyl-N-(2-methoxyethyl)glycine]
The LD50 of the first is higher: over 1500 mg/kg for the first, 660 to 1000 mg/kg for the second.

Compared with `CCSCCN(CC(=O)O)C(=O)[C@H](CCCNC(=N)N)NS(=O)(=O)c1ccc2cc(OC)c(OC)cc2c1` [N^2-(6,7-dimethoxy-2-naphthylsulfonyl)-L-arginyl-N-(2-ethylthioethyl)glycine], `CCOCCN(CCC(=O)O)C(=O)[C@H](CCCNC(=N)N)NS(=O)(=O)c1ccc2cc(OC)c(OC)cc2c1` [N^2-(6,7-dimethoxy-2-naphthylsulfonyl)-L-arginyl-N-(2-ethoxyethyl)-β-alanine] is lower in LD50: over 1000 mg/kg for the first, 660 to 1000 mg/kg for the second.

Going from `COc1cc2ccc(S(=O)(=O)N[C@@H](CCCNC(=N)N)C(=O)N3Cc4ccccc4C3C(=O)O)cc2cc1OC` (stereo partly drawn) [2-N^2-(6,7-dimethoxy-2-naphthylsulfonyl)-L-arginyl!-1-isoindolinecarboxylic acid] to `COc1cc2ccc(S(=O)(=O)N[C@@H](CCCNC(=N)N)C(=O)N(CC(=O)O)CC3CCCO3)cc2cc1OC` (stereo partly drawn) [N^2-(6,7-dimethoxy-2-naphthylsulfonyl)-L-arginyl-N-tetrahydrofurfurylglycine], the LD50 falls from over 1000 mg/kg to 620 mg/kg.
